In patent US20230203058A1, “MACROCYCLIC DIAMINE DERIVATIVES AS ENT INHIBITORS FOR THE TREATMENT OF CANCERS, AND COMBINATION THEREOF WITH ADENOSINE RECEPTOR ANTAGONISTS” (ITEOS BELGIUM SA, priority 2020, published 2023) one finds IC50 data, which are given here for 14 molecules.

The target in one experiment is T1, hERG ion channel (Homo sapiens, UniProt Q12809).
T1 construct: Chinese Hamster Ovary cell lines stably expressing the full-length ion channel; expressed in transfected cells
Kind of experiment: hERG ion channel inhibition (Patchliner automated patch-clamp, CHO cells). The class given is cell-based. The note with it: whole-cell, room temperature, 6-point curve up to 100 µM. Here is the method:
The compounds were tested for inhibition of hERG ion channel. 6-Point concentration-response curves were generated on the Patchliner automated patch-clamp using serial dilutions from a maximum test concentration of 100 µM.
Compounds were solubilised to 33 mM in DMSO before dilution in HBPS to 100 µM. 6-Point concentration-response curves were generated using serial dilutions from the top test concentration. Electrophysiological recordings were made from a Chinese Hamster Ovary cell lines stably expressing the full-length ion channel. Single cell ionic currents were measured in whole-cell configuration at room temperature (21-23° C.) using a Patchliner (Nanion Technologies). The internal solution for hERG contained (mM): 120 KF, 20 KCl, 10 EGTA, 10 HEPES and was buffered to pH 7.3. The external solution (HEPES-buffered saline, HBPS) contained (mM): 138 NaCl, 4.5 KCl, 1.8 CaC12, 1.0 MgC12, 10 HEPES, 10 glucose, buffered to pH7.4. Cells were clamped at a holding potential of -80 mV before a depolarising step appropriate for the hERG channel. Currents were measured from the step and referenced to the holding current. Compounds were incubated for 90 seconds. Concentration-response curves were generated by cumulative addition of compound with concentrations low to high. In all cases, steady-state inhibition was achieved before the next concentration of compound was added.
IC50 values were obtained from a 4-parameter logistic fit of the concentration-response data: […]
In general terms: hERG is a cardiac potassium channel; its block is linked to QT prolongation.

Another experiment deals with T2, human ENT1 (Homo sapiens, UniProt Q99808).
T2 sequence (Q99808 1-456): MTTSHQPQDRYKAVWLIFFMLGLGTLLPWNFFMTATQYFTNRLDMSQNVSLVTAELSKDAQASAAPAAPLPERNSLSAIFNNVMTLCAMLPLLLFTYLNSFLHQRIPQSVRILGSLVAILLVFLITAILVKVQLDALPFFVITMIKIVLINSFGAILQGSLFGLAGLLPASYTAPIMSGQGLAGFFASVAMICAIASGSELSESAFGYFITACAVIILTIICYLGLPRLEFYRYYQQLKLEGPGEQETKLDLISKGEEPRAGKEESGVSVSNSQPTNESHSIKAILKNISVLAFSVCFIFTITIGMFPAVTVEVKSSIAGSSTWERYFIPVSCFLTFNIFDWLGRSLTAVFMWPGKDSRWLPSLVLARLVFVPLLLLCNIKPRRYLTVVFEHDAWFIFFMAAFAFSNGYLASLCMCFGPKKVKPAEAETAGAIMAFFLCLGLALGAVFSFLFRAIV
As to the kind of experiment: ENT1 binding assay (competition with Sahenta-DY647 on JAR cells). Further details: JAR cells expressing ENT1 were bought from ATCC® (HTB-144TM); host or cells: JAR cells (human choriocarcinoma line; whole cells). To be noted: competition with Sahenta-DY647 100 nM, 4° C. The method, boiled down:
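Competition binding on intact JAR cells (50000 per well) in HBSS with 10 mM Hepes and 0.1% BSA. Cells pre-incubated with compound 30 min at 4 °C, then Sahenta-DY647 added at its IC90 (100 nM) for another 30 min at 4 °C; after washing, fluorescence read at Ex 630/Em 670 nm.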

Experiment [1] relates to stimulated primary human T cells. Kind of experiment: T cell proliferation assay (rescue of proliferation in presence of ATP, CFSE dilution). In kind it is cell-based. To be noted: 100 uM ATP. Here is the method:
The aim of this study was to determine the potency of equilibrative nucleoside transporter 1 (ENT1) inhibitors to rescue proliferation by stimulated primary human T cells incubated in the presence of 100 uM Adenosine triphosphate (ATP), in baseline conditions (condition A) or in the presence of various proteins known to bind small molecules (condition B). Condition A: X-VIVO15 Condition B: X-VIVO15, 2% Human Serum Albumine (HSA) and 0,1% α-1-Acid Glycoprotein (AAG)
Cryopreserved purified human CD3+ T cells were thawed and washed twice with RPMI1640 medium, UltraGlutamine containing 10% hiFBS.
Cells were suspended in PBS containing 10% hiFBS. Cells were stained with CFSE by adding 2 µM solution in PBS, to get a final 1 µM CFSE solution. Cells were incubated while rotating for 5 minutes. Reaction was stopped by adding PBS with 10% FBS and cells were centrifuged for 5 minutes at 1500 rpm.
Cells were resuspended at 1.6 ×10^6 cells/mL, either in X-VIVO15 medium or in 4% Human Serum Albumin and 0,2% α-1-Acid Glycoprotein. 50 µL of cell suspension (8×10^4 T cells) was added to wells of sterile round-bottom 96-well plates. Cells were activated by adding 50 µL of anti-CD3 anti-CD28 coated microbeads, suspended either in XVIVO-15 medium or in 4% HSA and 0,2% α-1-Acid Glycoprotein, at a ratio of one microbead per two cells. Serial dilutions of the ENT1 inhibitors were prepared in X-VIVO15 from 10 mM stock solutions in DMSO, and 50 µL was added to the wells. ATP powder was diluted in X-VIVO15, and 50 µL of this compound was added to the wells to reach a final assay concentration of 100 µM. Final volume of 200 µL. The experiments were also performed in 384 well plates - all volumes reduced by a factor of 4 (12,5 µL) with a final volume of 50 µL. Experiments were performed in duplicate. The cells were placed in a 37° C. humidified tissue culture incubator with 5% CO2 for 72 hours for 96 well plates, 96 hours for 384 well plates. After 72 or 96 hours, proliferation was measured determined by CFSE dilution via flow cytometry.

[2] abbreviates: Condition A: X-VIVO15, read-out: T Cell proliferation (Condition A) IC50.
Setting [3] is: Condition B: X-VIVO15, 2% HSA and 0,1% AAG, read-out: (2) T Cell proliferation (Condition B) IC50.

Each structure is given as a SMILES string. Where two headings read alike, the source gives them in different places.

T1 sequence (Q12809 whole entry): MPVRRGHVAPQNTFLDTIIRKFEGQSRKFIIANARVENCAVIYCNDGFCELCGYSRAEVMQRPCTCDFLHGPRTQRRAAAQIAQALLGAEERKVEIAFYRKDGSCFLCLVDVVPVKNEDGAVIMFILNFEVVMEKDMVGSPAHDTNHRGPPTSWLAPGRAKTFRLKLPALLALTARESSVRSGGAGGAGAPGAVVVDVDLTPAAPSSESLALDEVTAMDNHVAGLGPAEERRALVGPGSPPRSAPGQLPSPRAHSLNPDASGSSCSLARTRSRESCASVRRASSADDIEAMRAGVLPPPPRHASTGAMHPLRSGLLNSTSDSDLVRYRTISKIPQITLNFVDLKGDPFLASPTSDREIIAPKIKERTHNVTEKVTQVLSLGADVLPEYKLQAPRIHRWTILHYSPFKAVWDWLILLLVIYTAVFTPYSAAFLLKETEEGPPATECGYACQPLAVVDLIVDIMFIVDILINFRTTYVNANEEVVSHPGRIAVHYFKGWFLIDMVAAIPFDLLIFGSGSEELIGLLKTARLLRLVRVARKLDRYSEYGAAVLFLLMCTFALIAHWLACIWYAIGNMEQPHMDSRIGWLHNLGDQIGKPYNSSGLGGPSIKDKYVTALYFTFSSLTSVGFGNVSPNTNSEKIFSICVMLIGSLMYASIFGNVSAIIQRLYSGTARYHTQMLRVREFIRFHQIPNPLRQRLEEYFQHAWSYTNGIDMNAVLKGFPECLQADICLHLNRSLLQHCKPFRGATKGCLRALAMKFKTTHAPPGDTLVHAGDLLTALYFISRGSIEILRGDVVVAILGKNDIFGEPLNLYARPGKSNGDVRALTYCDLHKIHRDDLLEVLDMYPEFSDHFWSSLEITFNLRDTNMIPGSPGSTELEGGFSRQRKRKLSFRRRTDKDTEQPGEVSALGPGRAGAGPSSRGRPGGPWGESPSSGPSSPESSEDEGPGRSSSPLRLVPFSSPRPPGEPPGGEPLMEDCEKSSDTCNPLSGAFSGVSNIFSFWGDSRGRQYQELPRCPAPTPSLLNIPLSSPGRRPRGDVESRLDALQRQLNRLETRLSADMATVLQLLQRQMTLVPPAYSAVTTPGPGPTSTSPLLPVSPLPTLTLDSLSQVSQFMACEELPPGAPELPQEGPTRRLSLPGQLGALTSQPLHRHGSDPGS

Regarding `COc1cc2cc(c1OC)OCCCC(OC(=O)c1ccccn1)CCN1CCCN(CCCOC2=O)CC1` (centres unmarked) [Compound 52, 74,75-dimethoxy-6-oxo-5,8-dioxa-1(1,4)-diazepana-7(1,3)-benzenacyclotetradecaphane-12-yl picolinate], the results for the IC50 at hERG ion channel and on human ENT1 were 2700 nM and 1 to 20 nM, respectively.
Consider `COc1cc2cc(c1OC)OCCCC(OC(=O)CCCNC(C)=O)CCN1CCCN(CCCOC2=O)CC1` (centres unmarked) [Compound 97, 74,75-dimethoxy-6-oxo-5,8-dioxa-1(1,4)-diazepana-7(1,3)-benzenacyclotetradecaphane-12-yl 4-acetamidobutanoate], for which the IC50 in experiment [1] (setting [2]) was < 1 nM; in experiment [1] (setting [3]) it was > 500 nM; on human ENT1 it was 1 to 20 nM.
`COc1cc2cc(c1OC)OCCC[C@@H](O)CCN1CCCN(CCCOC2=O)CC1` [Compound 39, (12R)-12-hydroxy-74,75-dimethoxy-5,8-dioxa-1(1,4)-diazepana-7(1,3)-benzenacyclotetradecaphan-6-one]: the IC50 was 20 to 500 nM in experiment [1] (setting [2]), > 500 nM in experiment [1] (setting [3]) and > 500 nM at human ENT1.
As to `COc1cc2cc(c1OC)OCCCC(OC(=O)CCNC(C)=O)CCN1CCCN(CCCOC2=O)CC1` (centres unmarked) [Compound 100, 74,75-dimethoxy-6-oxo-5,8-dioxa-1(1,4)-diazepana-7(1,3)-benzenacyclotetradecaphane-12-yl 3-acetamidopropanoate], the IC50 was 1 to 20 nM in experiment [1] (setting [2]), > 500 nM in experiment [1] (setting [3]) and 1 to 20 nM at human ENT1.
For the molecule `COc1cc(C(=O)O[C@@H]2CCCOc3cc(cc(OC)c3OC)C(=O)OCCCN3CCN(CC2)CC(F)(F)C3)cc(OC)c1OC` [Compound 6, (12R)-16,16-difluoro-74,75-dimethoxy-6-oxo-5,8-dioxa-1(1,4)-diazepana-7(1,3)-benzenacyclotetradecaphane-12-yl 3,4,5-trimethoxybenzoate], the IC50 in experiment [1] (setting [2]) was < 1 nM; in experiment [1] (setting [3]), 20 to 500 nM; on human ENT1, 1 to 20 nM.
The matching figures for `COc1cc(C(=O)O[C@@H]2CCCOc3cccc(c3)C(=O)OCCCN3CCCN(CC2)CC3)cc(OC)c1OC` (stereo in doubt) [Compound 18, (12R)-6-oxo-5,8-dioxa-1(1,4)-diazepana-7(1,3)-benzenacyclotetradecaphane-12-yl 3,4,5-trimethoxybenzoate]: 1 to 20 nM, > 500 nM and 1 to 20 nM.
The corresponding values for `COc1cc2cc(c1OC)OCCCC(O/N=C\c1ccccc1)CCN1CCCN(CCCOC2=O)CC1` (centres unmarked) [Compound 37, (Z)-benzaldehyde O-(74,75-dimethoxy-6-oxo-5,8-dioxa-1(1,4)-diazepana-7(1,3)-benzenacyclotetradecaphane-12-yl) oxime] are 1 to 20 nM, > 500 nM and 20 to 500 nM.
Consider `COc1cc2cc(c1OC)OCCCC(OC(=O)c1ccc(OC(C)C)cc1)CCN1CCCN(CCCOC2=O)CC1` (centres unmarked) [Compound 43, 74,75-dimethoxy-6-oxo-5,8-dioxa-1(1,4)-diazepana-7(1,3)-benzenacyclotetradecaphane-12-yl 4-isopropoxybenzoate], for which the IC50 in experiment [1] (setting [2]) is < 1 nM; in experiment [1] (setting [3]), 1 to 20 nM; on human ENT1, 20 to 500 nM.
As for `COCCC(=O)OC1CCCOc2cc(cc(OC)c2OC)C(=O)OCCCN2CCCN(CC1)CC2` (centres unmarked) [Compound 93, 74,75-dimethoxy-6-oxo-5,8-dioxa-1(1,4)-diazepana-7(1,3)-benzenacyclotetradecaphane-12-yl 3-methoxypropanoate], the IC50 was 1 to 20 nM in experiment [1] (setting [2]), > 500 nM in experiment [1] (setting [3]) and 1 to 20 nM on human ENT1.
Regarding `COc1cc2cc(c1OC)OCCCC(OC(=O)CCC(=O)N(C)C)CCN1CCCN(CCCOC2=O)CC1` (centres unmarked) [Compound 99, 74,75-dimethoxy-6-oxo-5,8-dioxa-1(1,4)-diazepana-7(1,3)-benzenacyclotetradecaphane-12-yl 4-(dimethylamino)-4-oxobutanoate], the IC50 was < 1 nM in experiment [1] (setting [2]), 20 to 500 nM in experiment [1] (setting [3]) and 1 to 20 nM at human ENT1.
As to `COc1cc2cc(c1OC)CCC[C@@H](OC(=O)c1cc(OC)c(OC)c(OC)c1)CCN1CCCN(CCCNC2=O)CC1` [Compound 14, (11R)-74,75-dimethoxy-6-oxo-5-aza-1(1,4)-diazepana-7(1,3)-benzenacyclotridecaphane-11-yl 3,4,5-trimethoxybenzoate], the IC50 is 1 to 20 nM in experiment [1] (setting [2]), > 500 nM in experiment [1] (setting [3]) and 1 to 20 nM at human ENT1.
As for `COc1cc2cc(c1OC)OCCCC(OC(=O)c1cccc(Oc3ccccc3)c1)CCN1CCCN(CCCOC2=O)CC1` (centres unmarked) [Compound 46, 74,75-dimethoxy-6-oxo-5,8-dioxa-1(1,4)-diazepana-7(1,3)-benzenacyclotetradecaphane-12-yl 3-phenoxybenzoate], the IC50 in experiment [1] (setting [2]) was in the range of 1 to 20 nM; in experiment [1] (setting [3]) it was 20 to 500 nM; on human ENT1, 20 to 500 nM.
In the case of `COc1cc2cc(c1OC)OCCCC(OC(=O)CCn1cccn1)CCN1CCCN(CCCOC2=O)CC1` (centres unmarked) [Compound 94, 74,75-dimethoxy-6-oxo-5,8-dioxa-1 (1,4)-diazepana-7(1,3)-benzenacyclotetradecaphane-12-yl 3-(1H-pyrazol-1-yl)propanoate], the IC50 in experiment [1] (setting [2]) was 1 to 20 nM; in experiment [1] (setting [3]) it was > 500 nM; at human ENT1, 1 to 20 nM.
Take `COc1cc2cc(c1OC)OCCCC(OC(C)=O)CCN1CCCN(CCCOC2=O)CC1` (centres unmarked) [Compound 59, 74,75-dimethoxy-6-oxo-5,8-dioxa-1(1,4)-diazepana-7(1,3)-benzenacyclotetradecaphane-12-yl acetate]: the IC50 is 1 to 20 nM in experiment [1] (setting [2]), > 500 nM in experiment [1] (setting [3]) and 1 to 20 nM on human ENT1.
